According to PMC4658348 (ACS chemical biology, 2015):
pIC50: −log10 of the molar value.

How the values were obtained:
Type in all cases: biochemical
[1] = target: T1, vacuolar-type ATPase (V-ATPase) (Saccharomyces cerevisiae, UniProt P25515+P32563); experiment: enzyme-coupled ATPase assay
[2] = target: T1, vacuolar-type ATPase (V-ATPase); experiment: enzyme-coupled ATPase assay; remark: listed apart in the source
human HSP90α = human HSP90α (Homo sapiens, UniProt P07900); experiment: ATP/NADH-coupled ATPase assay

Structure (SMILES)	enzyme-coupled ATPase assay (NADH loss) with purified V-ATPase [1]	pIC50 [2]	pIC50 (human HSP90α)
CO/C1=C\C(C)=C\[C@@H](C)[C@@H](O)[C@@H](C)C/C(C)=C/C=C/[C@H](OC)[C@@H]([C@@H](C)[C@@H](O)[C@H](C)[C@@]2(O)C[C@@H](O)[C@H](C)[C@@H](C(C)C)O2)OC1=O [bafilomycin A1]	Oxohygrolidin (black bar) inhibited V-ATPase comparable to the plecomacrolides, bafilomycin A1(dotted bar), and concanamycin A (hatched bar)	–	–
CC[C@@H](O)[C@H](C)/C=C/C(=O)[C@@H](C)[C@H](O)[C@H](C)[C@H]1OC(=O)/C(C)=C/C(C)=C/[C@@H](C)[C@@H](O)[C@@H](C)C/C(C)=C/C=C/[C@@H]1OC [oxohygrolidin]	–	~6.60	~4.30
